Results: article PMC9046087, “Structural basis of tethered agonism of the adhesion GPCRs ADGRD1 and ADGRF1” (Nature, 2022)
Numbering of substitutions follows the chain as printed. Ends that are not written are not given here.

How the values were obtained:
ADGRF1 [1] = biological target: T1, ADGRF1 (Homo sapiens, UniProt Q5T601, K791A); assay: BRET assay using TRUPATH biosensors, Gs activation of ADGRF1; format: cell-based; conditions: Gs, ADGRF1 K791^6.40bA, n = 3
T1 construct: Flag (N); expressed in transfected cells; host or cells: HEK293F
T1 sequence (Q5T601 20-910 K791A): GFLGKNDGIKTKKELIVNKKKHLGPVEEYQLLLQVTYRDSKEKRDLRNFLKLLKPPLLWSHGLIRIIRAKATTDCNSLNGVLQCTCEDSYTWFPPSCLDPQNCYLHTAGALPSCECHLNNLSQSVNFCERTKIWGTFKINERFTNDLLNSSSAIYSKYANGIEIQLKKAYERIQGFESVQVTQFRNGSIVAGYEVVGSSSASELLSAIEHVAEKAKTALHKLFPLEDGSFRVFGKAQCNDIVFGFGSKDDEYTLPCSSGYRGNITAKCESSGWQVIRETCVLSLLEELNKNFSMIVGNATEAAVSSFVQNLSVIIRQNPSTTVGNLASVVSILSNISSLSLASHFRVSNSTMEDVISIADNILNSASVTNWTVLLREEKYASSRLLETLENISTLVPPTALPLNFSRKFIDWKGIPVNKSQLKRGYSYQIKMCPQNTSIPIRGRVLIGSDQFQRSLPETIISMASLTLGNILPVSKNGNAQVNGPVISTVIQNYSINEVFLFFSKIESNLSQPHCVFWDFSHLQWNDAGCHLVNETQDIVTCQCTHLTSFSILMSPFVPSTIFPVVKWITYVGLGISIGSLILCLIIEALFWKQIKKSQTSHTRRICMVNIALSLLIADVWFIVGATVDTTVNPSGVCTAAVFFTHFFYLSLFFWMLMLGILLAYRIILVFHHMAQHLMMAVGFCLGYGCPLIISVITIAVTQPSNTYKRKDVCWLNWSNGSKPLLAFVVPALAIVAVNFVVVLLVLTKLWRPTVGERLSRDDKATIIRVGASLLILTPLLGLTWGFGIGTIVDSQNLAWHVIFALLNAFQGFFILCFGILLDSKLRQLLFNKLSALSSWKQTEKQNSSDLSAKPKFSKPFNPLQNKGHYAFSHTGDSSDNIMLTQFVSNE
Method: (§1) To study the synthetic stalk peptide-induced G protein activation of ADGRD1 and ADGRF1, a BRET assay using TRUPATH biosensors was conducted to measure the proximal interaction between RLuc8 fused to the Gα subunit and GFP2 fused to the Gγ subunit. The TRUPATH suite of biosensors was obtained from Addgene (Addgene kit no. 1000000163) as a gift from B. Roth, including GαsS-RLuc8, Gαi1-RLuc8, Gβ3 and Gγ9-GFP2 as previously described.
(§2) The wild-type or mutant ADGRD1 and ADGRF1 were transiently co-transfected with plasmids encoding Gα-RLuc8 (GαsS-RLuc8 for Gs activation assay; Gαi1-RLuc8 for Gi activation assay), Gβ3 and Gγ9-GFP2 at a ratio of 2:1:1:1 (receptor plasmid, 800 ng; G protein subunit plasmids, 400 ng for each) in 2 ml HEK293F cells at a density of 1.2 × 10^6 cells per ml. Cell cultivation and receptor surface expression measurement were performed as described above. The cells were plated into 96-well white plates (40,000 cells per well) in 60 μl of assay buffer and incubated at 37 °C for 30 min. Then 10 μl of freshly prepared 50 μM coelenterazine 400a (Nanolight Technologies) was added. […] The cells were stimulated with 30 μl of synthetic stalk peptide at different concentrations and the BRET signals were monitored continuously five times. The last measurements were used in data analysis. The BRET ratios were calculated as the ratio of the GFP2 emission to RLuc8 emission.

ADGRF1 [2] = biological target: T2, ADGRF1 (Homo sapiens, UniProt Q5T601, V689A); assay: as above; format: cell-based; conditions: Gs, ADGRF1 V689^ICL2A, n = 3
T2 construct: Flag (N); expressed in transfected cells; host or cells: HEK293F
T2 sequence (Q5T601 20-910 V689A): T1 sequence (Q5T601 20-910 K791A) with V670A, A772K
Method: as §1, §2

[3] = read-out: pEC50 (mean ± s.e.m.) (converted)

TSFSILMSPFVP [pF1]
Emax (mean ± s.e.m.) (ADGRF1 [1]): 79 ± 13 % of WT
EC50 (ADGRF1 [1]; [3]): 912 nM
Emax (mean ± s.e.m.) (ADGRF1 [2]): 77 ± 10 % of WT
EC50 (ADGRF1 [2]; [3]): 204 nM
